The test system of series [1] is mechanical (tactile) allodynia in nerve ligation (Chung) model rats. The experiment in a line: animal or person. The note with it: for Duration / Time to peak effect / Max. efficacy (% MPE): Table I; for Max. efficacy (% MPE): highest dose tested; for ED50: Rattus norvegicus, ip. On the procedure:
Rats (male Sprague Dawley, Harlan Industries, Indianapolis, Ind.) are housed in ALAC approved cages using soft bedding and 12/12 hour day/night cycle, in atmospherically maintained rooms in the CTF/VA Animal Vivarium. For the nerve ligation model, rats are typically lesioned at 125-175 g body weight, while for the diabetic rat model, 275-325 gram rats are employed.
Kim SH, Chung JM: An experimental model for peripheral neuropathy produced by segmental spinal nerve ligation in the rat. Pain 50: 355-363 (1992).
Anomalous pain states evoked by nerve injury in man is believed to be modeled by effects produced by chronic peripheral nerve injury lesion in rats. To create a chronic nerve injury the L5 and L6 spinal nerves are visualized by removal of the L6 transverse process. The two spinal nerves are ligated with 6-0 silk thread […] under halothane anesthesia. […] The rats were allowed a 7 day postoperative recovery period before further studies or procedures.
Rats were placed in a clear plastic, wire mesh-bottomed cage, divided into individual compartments of 5×6×9 inches, which permitted freedom of movement while allowing access to the paws to be tested. Animals were allowed to accommodate to this environment for approximately 15 minutes, or until cage exploration behavior ceased. To assess the 50% mechanical threshold for paw withdrawal, von Frey hairs were applied to the plantar mid-hindpaw, avoiding the footpads. The eight von Frey hairs used are designated by and range from 0.4-15.1 grams (#'s3.61-5/18). Each hair was pressed perpendicularly against the paw with sufficient force to cause bending, and held for approximately 6-8 seconds. A positive response was noted if the paw was sharply withdrawn. Absence of a response was cause to present the next consecutive stronger stimulus: a positive response was cause to present the next weaker stimulus. If a change in response occurred, causing a change in the direction of stimulus presentation from descending to ascending or vice-versa, four additional data points were collected subsequent to the change. Stimuli were presented successively until either six data points were collected, or the maximum or minimum stimulus was reached. If a minimum stimulus was reached and positive responses still occurred, the threshold was assigned an arbitrary minimum value of 0.25 grams; if a maximum stimulus was presented and no response occurred, a maximum threshold value of 15 grams was assigned. The resulting pattern of responses was tabulated and the 50% response threshold computed using the formula:
log (threshold, mg×10)=Xf+k∂
Based on observations on normal, unoperated rats and sham-operated rats, the cutoff of a 15.1 g hair is selected as the upper limit for testing. (Chaplan, et al., 1994.)
Four agents were examined. […] The dose range was determined on a single rat on a 0.5 log unit dose until an endpoint of effect was reached (loss of motor function, seizure/rigidity, complete nerve blockage). Once the dose range was established, each drug was examined at a minimum of 3 doses in groups of 6 rats per dose. Groups were prepared to receive injections of drugs, or saline control, by i.p. injection. After the animals accommodated to the post-operative test environment, animals received treatment and the effects upon the tactile threshold were determined using the up-down method as described in Example 3. The following is a typical paradigm for IP application: […]

The test system of series [2] is mechanical (tactile) allodynia in streptozotocin diabetic rats. The conditions noted are these: i.p.; for maximum efficacy or highest % suppression of allodynia at highest dosage unaffected by toxicity: Example 6; for Duration / Time to peak effect: Table III; for Max. efficacy (% MPE): Table III (3, 10 and 20 mg/kg levels only).
Method: (§1) Rats are made diabetic by a single intraperitoneal injection of streptozotocin (50 mg/kg body weight) freshly dissolved in 0.9% sterile saline) in order to ablate pancreatic β cells and induce insulin deficiency. Two days later, diabetes is confirmed in streptozotocin-injected rats by measuring glucose concentration in a blood sample obtained by tail prick, using a glucose oxidase-impregnated test strip and reflectance meter (Ames Glucostix and Glucometer II, Myles Inc., Elkhart, Ind.) (Calcutt, et al., 1993). Streptozotocin-injected animals with blood glucose concentrations below 15 mmol/l are excluded from subsequent studies. Diabetic rats received thrice weekly sub-cutaneous injections of 2U heat-treated Ultralente insulin (Novo Industrie A/C, Copenhagen, Denmark) in a regime shown to prevent loss of body weight and musculature whilst allowing continued hyperglycemia. Injections were made on Monday, Wednesday and Friday and behavioral measurements made on Tuesdays and Thursdays.
For series [3] the following is noted: stated without a described test.
Series [4] relates to mechanical (tactile) allodynia in streptozotocin diabetic rats. The experiment in a line: animal or person. The conditions noted are these: Rattus norvegicus, ip.
Method: as §1
For series [5] the following is noted: cited from earlier work.
A further series has as its system painful neuropathies. The conditions noted are these: oral administration, literature; cited from earlier work.
The next series concerns cardiac sodium channels. The conditions noted are these: Hill et al. 1988; cited from earlier work.
The next series relates to arrhythmia in dogs. The note with it: cited from earlier work.
Where [6] appears, read: Chung model rats, i.p., Example 5.
[7] abbreviates: read-out: ED 50 or the calculated dose for 50% suppression.
[8] abbreviates: 30 mg/kg, affected by toxicity/behavioral problems, not probative.

Read-outs that look alike come from different tables or passages of the source.

Here are results for four compounds from patent US5985933A, “Methods for treating central and peripheral nerve pain” (Celgene Corporation, priority 1997, dated 1999).

On to `Cc1cccc(C)c1OC[C@H](C)N` [S-Mexiletine, (S)-mexiletine], for which the “maximum efficacy or highest % suppression of allodynia at highest dose tested” value in series [1] (setting [6]) is 79%±11%. Moreover, the Duration was 60 min in series [1] (Chung model rats, i.p.) and 60 min in series [2]. In addition, the “Time to peak effect” value in series [1] (Chung model rats, i.p.) was 15 min; in series [2] it was 15 to 45 min. Also, the “Max. efficacy (% MPE)” value came to 79 % MPE in series [1] (Chung model rats, i.p.) and 65 % MPE in series [2]. In addition, the ED50 is 14 mg/kg in series [1], 14 mg/kg in series [1] (setting [7]) and 15 mg/kg in series [4]. Moreover, the “% MPE” value in series [2] (3 mg/kg) is given as 12 % MPE; in series [2] (10 mg/kg), 50 % MPE; in series [2] (20 mg/kg), 30 % MPE; in series [2] (setting [8]), 75 % MPE. For the same compound, in series [2], the “maximum efficacy or highest % suppression of allodynia at highest dosage unaffected by toxicity” value was 65%±16%. Also, the therapeutic-toxic range in series [3] fell in the range of 0.25 to 4 µg/mL.
As to `Cc1cccc(C)c1OCC(C)N` (racemic) [RS-Mexiletine, (R,S)-mexiletine], the Duration in series [1] (Chung model rats, i.p.) was 60 min; in series [2], less than 60 min. For the same compound, the “Time to peak effect” value in series [1] (Chung model rats, i.p.) fell in the range of 15 to 30 min; in series [2] it was 30 to 45 min. The “Max. efficacy (% MPE)” value in series [1] (Chung model rats, i.p.) stood at 76 % MPE; in series [2], 61 % MPE. The ED50 in series [1] was 35 mg/kg; in series [1] (setting [7]) it was 35 mg/kg; in series [4] it was 17 mg/kg. For the same compound, the “% MPE” value in series [2] (3 mg/kg) worked out at 20 % MPE; in series [2] (10 mg/kg), 29 % MPE; in series [2] (20 mg/kg), 42 % MPE; in series [2] (setting [8]), 75 % MPE. In series [5] (Monk et al. 1990), the therapeutic-toxic concentration range was 0.5 to 2.0 µg/mL. Also, the “incidence of adverse side effects (tremors, diplopia, nausea and vomiting)” value in series [5] (human, in vivo) is recorded as “up to 70% of patients”. The “efficacy in painful neuropathies” value with painful neuropathies is reported as “has shown efficacy for a variety of painful neuropathies”.
Consider `CCN(CC)CC(=O)Nc1c(C)cccc1C` [Lidocaine, lidocaine], for which the Duration in series [1] (Chung model rats, i.p.) is recorded as 90 min; in series [2] it was 30 min. Besides, the “Time to peak effect” value in series [1] (Chung model rats, i.p.) is listed as 15 min; in series [2] it was 30 min. For the same compound, the “Max. efficacy (% MPE)” value is given as 83 % MPE in series [1] (Chung model rats, i.p.) and 39 % MPE in series [2]. In addition, the ED50 amounted to 38 mg/kg in series [1] and 32 mg/kg in series [4].
Regarding `Cc1cccc(C)c1OC[C@@H](C)N` [R-Mexiletine, (R)-mexiletine], the “ED 50 (in words)” value in series [1] (setting [6]) is “could not be calculated due to low effect at maximum dose”. In addition, the “maximum efficacy or highest % suppression of allodynia at highest dose tested” value in series [1] (setting [6]) is 12%±5%. The “Time to peak effect” value in series [1] (Chung model rats, i.p.) is 30 min; in series [2], 15 to 30 min. Moreover, the “Max. efficacy (% MPE)” value in series [1] (Chung model rats, i.p.) came to 12 % MPE; in series [2], 11 % MPE. In addition, the “% MPE” value in series [2] (3 mg/kg) turned out to be 10 % MPE; in series [2] (10 mg/kg), 15 % MPE; in series [2] (20 mg/kg) it was 11 % MPE; in series [2] (setting [8]) it was 86 % MPE. For the same compound, the “maximum efficacy or highest % suppression of allodynia at highest dosage unaffected by toxicity” value in series [2] was 11%±5%. Further, in the series on cardiac sodium channels, the “binding affinity relative to (S)-mexiletine” value is given as “twice that of (S)mexiletine”. For the same compound, in the series with arrhythmia in dogs (background finding referred to), the “antiarrhythmic properties relative to the (S)-isomer” value was “greater than two times more antiarrhythmic properties than the (S)-isomer”. For the same compound, the “antiarrhythmic properties relative to the (S)-enantiomer” value in the series with arrhythmia in dogs (dogs, Turgeon et al. 1991) is on record as “greater antiarrhythmic properties than the (S)-enantiomer”.
